The subject of assay [1] is chondrocytes in damaged articular cartilage (MIA-induced osteoarthritis). As to the kind of experiment: MIA-induced knee osteoarthritis in rats: chondrocyte proliferation and cartilage regeneration in vivo. As to conditions: for BrdU/Aggrecan Labeling Index (%): rat MIA knee, 0.2 mM peptide in 25 μl of 5% HA (HA group: 5% HA alone), intra-articular on day 8, 12, 16, 20 post-MIA, mean±SEM, *P<0.0001 vs vehicle/HA; for H&E histology of knee joint (morphological changes associated with osteoarthritis): specimens day-18 and day-25 post-MIA injection, FIG. 1; for Chondrocytes in cartilage layers, microscopic images: knee specimens 25 days after MIA injection, FIG. 2. The arrangement: species or system Sprague-Dawley rats. The procedure:
Animal models of osteoarthritis were established by intra-articular injection of MIA. Specifically, adult 10-wk-old male Sprague-Dawley rats (initial body wt=312±11 g) were anesthetized with an intraperitoneal injection of xylazine (10 mg/kg), followed by a single intra-articular injection of MIA (1 mg of MIA in 25 μl of sterile saline) in the right knee. In particular, the MIA solution was injected through the patellar ligament by using a 27G needle with the leg flexed at a 90° angle at the knee.
For the detection of in vivo cell proliferation, BrdU was reconstituted in DMSO as stock (80 mM). 150 μl of BrdU mixed with 350 μl of PBS was intraperitoneally injected into rat at 16 hours prior to euthanasia. DNA synthesis was then assessed by BrdU labeling with anti-BrdU antibodies according to procedures set forth below.
The knee joints were dissected and the surrounding soft tissue was removed. Specimens were fixed in 4% paraformaldehyde and then decalcified with Shandon TBD-2 decalcifier (Thermo Scientific; Logan, Utah). The joints were then sectioned mid-sagittally and embedded in paraffin blocks. Sections (5 μm in thickness) were longitudinally cut.
Before use, fixed samples were de-pa raffinized in xylene and rehydrated in a graded series of ethanol. The sample were then stained with hematoxylin and eosin (H&E) or used for immunohistochemical examination. 20 sections per knee were carefully prepared so as to include the most severely degenerated area.
Paraffin-embedded joint specimens were deparaffinized in xylene and rehydrated in a graded series of ethanol. Deparaffinized specimens were then exposed to 1 N HCl at room temperature for 1 hour for subsequent immunofluorescence study.
(§1) For immunofluorescence study, the specimens were blocked with 10% goat serum and 5% BSA for 1 hour. Immunostaining was done using primary antibodies against aggrecan (1:100 dilution), type II collagen (1:100 dilution), and BrdU (1:100 dilution) at 37° C. for 2 hours, followed by incubation with the appropriate rhodamine- or FITC-conjugated donkey IgG for 1 hour at room temperature. Nuclei were located by counterstaining with Hoechst 33258 for 7 min. Images were captured using a Zeiss epifluorescence microscope with a CCD camera. Blinded quantification was performed in triplicate by manually counting cells from 20 randomly-selected fields in each section.
Knee osteoarthritis is a common chronic degenerative disease characterized by loss of articular cartilage. Injection of mono-iodoacetate (MIA), an inhibitor of glycolysis, into the femorotibial joint space of rodents has been reported to induce loss of articular cartilage similar to that noted in human OA. It has been established that extensive chondrocyte degeneration/necrosis usually arises at 7 days after MIA injection. Therefore, PEDF peptide treatment was started on day 8 post-MIA injection, so as to elucidate whether the present PEDF peptides promote cartilage regeneration.
Rats were randomly assigned to 6 experimental groups (n=6, each group) and treated as follows. In the HA group, rats received 25 μl of 5% hyaluronic acid injection. In the Vehicle/HA group, rats were treated with DMSO vehicle re-dissolved in 25 μl of 5% HA. As to the 29-mer/HA, 24-mer/HA, 20-mer/HA, and 18-mer/HA groups, rats received 0.2 mM PEDF peptide (29-mer, 24-mer, 20-mer or 18-mer) re-dissolved in 25 μl of 5% HA. Treatments were applied by way of a single intra-articular injection once on day-8, 12, 16 and 20, respectively, post-MIA injection.
Quantitative analysis was performed as described above from 3 sections per knee joint specimen, and 6 rats at each group. The BrdU/aggrecan labeling index (%) was computed as the number of BrdU- and aggrecan-double positive cells divided by the total number of aggrecan-positive cells. Results are summarized in Table 1; *P<0.0001 versus the vehicle/HA group.

For assay [2], the system named is primary chondrocytes from rat articular cartilage. Briefly: Primary articular chondrocyte proliferation in vitro. The class given is cell-based, Sprague-Dawley rats. The conditions noted are these: 50 nM peptide; for Aggrecan Labeling Index (%): rat articular chondrocyte monolayer culture, 12 days, mean±SEM, *P<0.01 vs untreated. The procedure: Articular cartilage was harvested from femoral condyles (the anterior, posterior and lateral areas) of adult 8-wk-old male Sprague-Dawley rats. Care was taken to avoid contamination with synovium and to disruption of the bony structures during the sampling process. Dissected tissue was cut into small (about 0.5 mm^3) pieces and digested sequentially by pronase (70 U/ml, 1 hour at 37° C.) and collagenase (300 U/ml, 3 hours at 37° C.). After digestion, collagenase was removed by a single wash in sterile phosphate-buffered saline (PBS), followed by two further washes in DMEM supplemented with 2% FBS. For primary culture, 6000 trypan blue-negative cells per well were plated on 10 μg/ml fibronectin-coated coverslips in a 6-well plate in 10% FBS-DMEM supplemented with 1% penicillin/streptomycin. The next day, the medium was changed to the standard expansion medium (consisting of 10% FBS-DMEM, 0.1 mM ascorbic acid, 0.5 mg/ml L-glucose, 100 mM HEPES, 1 mM sodium pyruvate, 2 mM L-glutamine and antibiotics) supplemented with or without 50 nM PEDF peptide). The medium was replaced every 3 days for 12 days.
as §1
Primary chondrocytes were isolated from rat articular cartilage and cultivated in the presence or absence of the present PEDF peptides to elucidate the stimulating effect of the present PEDF peptides on chondrocyte proliferation.
By contrast, in the vehicle group, the colonies are much smaller in the absence of PEDF peptides. The chondrocyte identity of cells within the colony was confirmed by aggrecan immunostaining (FIG. 4A, inserts). The level of aggrecan-positive cells in the monolayer culture (FIG. 4B) were quantified from 20 randomly selected fields, and the aggrecan labeling index (%) was computed as the number of aggrecan-labeled cells divided by the total number of cells (nucleus labeling by Hoechst 33258). Results are summarized in Table 2; *P<0.01 versus untreated cells.

Assay [3] has as its system mesenchymal stem cells (MSCs). As to the kind of experiment: Chondrogenic differentiation of MSCs: aggrecan immunostaining. The format is cell-based, Sprague-Dawley rats. As to conditions: rat MSCs in chondrogenic medium plus 50 nM peptide, 1 week; mean±SEM; *P<0.0001 vs vehicle. The procedure: Adult 8-wk-old male Sprague-Dawley rats were anesthetized with an intraperitoneal injection of xylazine (10 mg/kg). Femurs were aseptically harvested, washed in a mixture of PBS and antibiotics for 5 minutes, dissected of all soft tissue, transected at their epiphysis, and their marrow cavity was rinsed repeatedly with a mixture of heparin and DMEM. The harvested cells were centrifuged at 1000×g for 10 minutes. Cell pellets were resuspended with DMEM, and then the cell suspension was transferred to a 15-ml centrifuge tube containing 5 ml of Percoll (1.073 g/ml). After centrifugation at 1500×g for 30 minutes, the mononuclear cells in the middle layer were separated, washed three times with PBS and then resuspended in low-glucose DMEM with 10% heat-inactivated FBS and 1% penicillin/streptomycin. Cells were then incubated with 95% air and 5% CO2 at 37° C.; the medium was replaced every 4 days. Unattached cells were discarded and adherent cells were retained. The primary mesenchymal stem cells (MSCs) grew to approximately 80%-90% confluence after culture for 1 week.
For inducing the chondrogenic differentiation of MSCs, 5×10^5 expanded MSCs were exposed to chondrogenic medium (high-glucose DMEM with 100 nM dexamethasone, 0.17 mM ascorbic acid-2 phosphate, 10 μg/ml of insulin, 5 μg/ml of transferrin, 5 ng/ml selenium, 1 mM sodium pyruvate, 2 mM L-glutamine, and 2% FBS) supplemented with 10 ng/ml TGF-β2 (R&D Systems; Minneapolis, Minn.). […]
For immunofluorescence study, the specimens were blocked with 10% goat serum and 5% BSA for 1 hour. […] Blinded quantification was performed in triplicate by manually counting cells from 20 randomly-selected fields in each section.
Immunostaining for aggrecan and type II collagen was also performed to investigate the pro-differentiation activity of the present PEDF peptides. The level of aggrecan-positive cells were quantified from 20 randomly selected fields, and the aggrecan labeling index (%) was computed as the number of aggrecan-labeled cells divided by the total number of cells (nucleus labeling by Hoechst 33258). […]

In a further assay the test system is osteoarthritis. Briefly: Treating osteoarthritis in a subject (experiments of prior application Ser. No. 13/428,996 and present application). The class given is in vivo. As to conditions: stated without data; based on prior and present application. An excerpt: Prior experiments conducted by the present inventors, such as those disclosed in the co-pending U.S. application Ser. No. 13/428,996 (the entirety of which is incorporated herein by reference) and experiments provided hereinbelow, reveal that several short, synthetic PEDF peptides derived from the 39-mer, are capable of treating osteoarthritis in a subject.

On to “SLGAEQRTESIIHRALYYDLISSP (optionally in 5% hyaluronic acid) [24-mer, residues 93-116 of human PEDF; /HA = re-dissolved in 5% hyaluronic acid]”, for which, in assay [1], the “BrdU/Aggrecan Labeling Index (%)” value was 16.0 ± 2.03* %. For the same substance, the “Aggrecan Labeling Index (%)” value in assay [2] is recorded as 50.0 ± 2.9* %; in assay [3] it was 78.8 ± 4.3* %.

“EQRTESIIHRALYYDLISSPDIHGT [25-mer, peptide lacking the SLGA residues]”: the “Effectiveness in treating osteoarthritis in a subject” value (shortened to “Effectiveness”) in the assay on osteoarthritis is “ineffective”.

Take “hyaluronic acid [HA, reference compound]”: in assay [1], the “BrdU/Aggrecan Labeling Index (%)” value worked out at 0.71 ± 0.28%.

On to “ALSALSLGAEQRTESIIHRALYYDLISSPDIHGT [34-mer, corresponds to residues 88-121 of human PEDF]”, for which, in the assay with osteoarthritis, the “Effectiveness” value is listed as “effective”.

Turning to “EQRTESIIHRALYYDLIS (optionally in 5% hyaluronic acid) [18-mer, peptide lacking the SLGA residues; /HA = re-dissolved in 5% hyaluronic acid, reference compound]”, the “BrdU/Aggrecan Labeling Index (%)” value in assay [1] is “does not elicit such promoting effect”; in assay [1] (listed as 18-mer/HA), 0.67 ± 0.33%. Also, in assay [1], the “H&E histology of knee joint (morphological changes associated with osteoarthritis)” value is “morphological changes associated with osteoarthritis (including the reduction of cartilage, the superficial fibrosis of cartilage and subchondral bone collapse) is noted”. Also, in assay [2], the “Aggrecan Labeling Index (%)” value worked out at 31.8 ± 2.6%. Moreover, the “Effectiveness” value in the assay on osteoarthritis is listed as “fails to elicit any protection against osteoarthritis”.

For “SLGAEQRTESIIHRALYYDL (optionally in 5% hyaluronic acid) [20-mer, residues 93-112 of human PEDF; /HA = re-dissolved in 5% hyaluronic acid]”, the “Aggrecan-positive cells among all cells (aggrecan/Hoechst 33258 dual staining)” value in assay [1] (FIG. 3 middle panels) is recorded as “over 95%”. For the same substance, in assay [1], the “Chondrocytes in cartilage layers, microscopic images” value is listed as “occupation of large numbers of newly generated chondrocyte throughout the cartilage”; the “BrdU/Aggrecan Labeling Index (%)” value was 17.5 ± 2.7* %; the “H&E histology of knee joint (morphological changes associated with osteoarthritis)” value is “the cartilage surface is smoother and the cartilage and subchondral bone are relatively integral”. Further, in assay [1] (superficial, transitional and deep zone, vs vehicle-treated knee, FIG. 3 left), the “Aggrecan-positive signals in cartilage (immunostaining)” value is “heavily accumulated”. Moreover, the “Numbers of BrdU-positive cells” value in assay [1] (vs vehicle/HA group, FIG. 3 right panels) was “increased significantly”. Further, the “Chondrocyte growth and colony formation” value in assay [2] (vs vehicle group, FIG. 4A) was “chondrocytes grew faster and aggregated into huge three dimensional colonies”. The “Aggrecan Labeling Index (%)” value in assay [2] was 50.1 ± 3.6* %. Further, the “Aggrecan Labeling Index (%)” value in assay [3] was 78.7 ± 3.8* %.

On to “SLGAEQRTESIIHRALYYDLISSPDIHGT (optionally in 5% hyaluronic acid) [29-mer, residues 93-121 of human PEDF; /HA = re-dissolved in 5% hyaluronic acid]”, for which the “Chondrocytes in cartilage layers, microscopic images” value in assay [1] is “occupation of large numbers of newly generated chondrocyte throughout the cartilage”. For the same substance, the “BrdU/Aggrecan Labeling Index (%)” value in assay [1] is recorded as 15.0 ± 2.38* %. Moreover, the “Aggrecan Labeling Index (%)” value is on record as 52.2 ± 5.2* % in assay [2] and 76.8 ± 5.0* % in assay [3].

The values above are taken from patent US9777048B2, “Use of PEDF-derived polypeptides for treating osteoarthritis” (MacKay Memorial Hospital, priority 2012, dated 2017).
